Here are results for six molecules from ChEMBL document CHEMBL5724914, “Linking interpersonal differences in gut microbiota composition and drug biotransformation activity” (2024).

Data set [1] in a line: The drug is tested on Z-020 corresponding to rabbit gut metagenome with ENA study accession number: PRJEB37062 and ENA sample accession number: ERS12561819 for biotransformation under anaerobic condition. The drug concentrations were measured over 9 timepoints collected between 0 and 24 hours of incubation by liquid-chromatography-coupled mass spectrometry (LC–MS). To be noted: 2 µM.

Data set [2] can be described thus: The drug is tested on Z-012 corresponding to metagenome with ENA study accession number: PRJEB37062 and ENA sample accession number: ERS12561812 for biotransformation under anaerobic condition. The drug concentrations were measured over 9 timepoints collected between 0 and 24 hours of incubation by liquid-chromatography-coupled mass spectrometry (LC–MS). The following applies: 2 µM.

Data set [3] is described as follows: The drug is tested on Z-001 corresponding to mouse gut metagenome with ENA study accession number: PRJEB37062 and ENA sample accession number: ERS12561801 for biotransformation under anaerobic condition. The drug concentrations were measured over 9 timepoints collected between 0 and 24 hours of incubation by liquid-chromatography-coupled mass spectrometry (LC–MS). The following applies: 2 µM.

Data set [4] is described as follows: The drug is tested on WLS-098 corresponding to human gut metagenome with ENA study accession number: PRJEB37062 and ENA sample accession number: ERS12561754 for biotransformation under anaerobic condition. The drug concentrations were measured over 9 timepoints collected between 0 and 24 hours of incubation by liquid-chromatography-coupled mass spectrometry (LC–MS). The following applies: 2 µM.

A short description of data set [5]: The drug is tested on WLS-090 corresponding to human gut metagenome with ENA study accession number: PRJEB37062 and ENA sample accession number: ERS12561753 for biotransformation under anaerobic condition. The drug concentrations were measured over 9 timepoints collected between 0 and 24 hours of incubation by liquid-chromatography-coupled mass spectrometry (LC–MS). To be noted: 2 µM.

A short description of data set [6]: The drug is tested on WLS-073 corresponding to human gut metagenome with ENA study accession number: PRJEB37062 and ENA sample accession number: ERS12561749 for biotransformation under anaerobic condition. The drug concentrations were measured over 9 timepoints collected between 0 and 24 hours of incubation by liquid-chromatography-coupled mass spectrometry (LC–MS). To be noted: 2 µM.

A short description of data set [7]: The drug is tested on WLS-052 corresponding to human gut metagenome with ENA study accession number: PRJEB37062 and ENA sample accession number: ERS12561747 for biotransformation under anaerobic condition. The drug concentrations were measured over 9 timepoints collected between 0 and 24 hours of incubation by liquid-chromatography-coupled mass spectrometry (LC–MS). To be noted: 2 µM.

Data set [8] in a line: The drug is tested on WLS-027 corresponding to human gut metagenome with ENA study accession number: PRJEB37062 and ENA sample accession number: ERS12561744 for biotransformation under anaerobic condition. The drug concentrations were measured over 9 timepoints collected between 0 and 24 hours of incubation by liquid-chromatography-coupled mass spectrometry (LC–MS). To be noted: 2 µM.

A short description of data set [9]: The drug is tested on WLS-007 corresponding to human gut metagenome with ENA study accession number: PRJEB37062 and ENA sample accession number: ERS12561742 for biotransformation under anaerobic condition. The drug concentrations were measured over 9 timepoints collected between 0 and 24 hours of incubation by liquid-chromatography-coupled mass spectrometry (LC–MS). The following applies: 2 µM.

The conditions of data set [10]: human gut metagenome, 24 h, 2 µM.
For data set [11] the following is noted: human gut metagenome, 24 h, 2 µM. This is another data set of the same source.
The conditions of data set [12]: human gut metagenome, 24 h, 2 µM. The source holds these as a separate data set.
For data set [13] the following is noted: human gut metagenome, 24 h, 2 µM. The source holds these as a separate data set.
For data set [14] the following is noted: human gut metagenome, 24 h, 2 µM. This is another data set of the same source.
For data set [15] the following is noted: human gut metagenome, 24 h, 2 µM. The source holds these as a separate data set.
For data set [16] the following is noted: human gut metagenome, 24 h, 2 µM. The source holds these as a separate data set.
The conditions of data set [17]: human gut metagenome, 24 h, 2 µM. The source holds these as a separate data set.
Data set [18] in a line: The drug is tested on Z-027 corresponding to metagenome with ENA study accession number: PRJEB37062 and ENA sample accession number: ERS12561826 for biotransformation under anaerobic condition. The drug concentrations were measured over 9 timepoints collected between 0 and 24 hours of incubation by liquid-chromatography-coupled mass spectrometry (LC–MS). To be noted: 2 µM.

Data set [19] is described as follows: The drug is tested on Z-023 corresponding to metagenome with ENA study accession number: PRJEB37062 and ENA sample accession number: ERS12561822 for biotransformation under anaerobic condition. The drug concentrations were measured over 9 timepoints collected between 0 and 24 hours of incubation by liquid-chromatography-coupled mass spectrometry (LC–MS). The following applies: 2 µM.

Data set [20] can be described thus: The drug is tested on Z-011 corresponding to mouse gut metagenome with ENA study accession number: PRJEB37062 and ENA sample accession number: ERS12561811 for biotransformation under anaerobic condition. The drug concentrations were measured over 9 timepoints collected between 0 and 24 hours of incubation by liquid-chromatography-coupled mass spectrometry (LC–MS). The following applies: 2 µM.

Molecules are shown by their SMILES.
Also: call rule not given here.

In the case of `CCC1(c2ccc(N)cc2)CCC(=O)NC1=O` (centres undefined) [AMINOGLUTETHIMIDE], the “Bacterial Biotransformation” value in [1], in [2], in data set [3], in [4], in data set [5] and in data set [6] was “Compound NOT metabolized” throughout. The “Bacterial Biotransformation” value in [7], in data set [8], in data set [9], in [10], in data set [11] and in data set [12] was “Compound NOT metabolized” in each case. For the same molecule, the “Bacterial Biotransformation” value in data set [13], in data set [14], in data set [15], in [16] and in data set [17] was “Compound NOT metabolized” in each case.

As to `C[C@@H]1CC[C@H]2[C@@H](C)C(=O)O[C@@H]3O[C@@]4(C)CC[C@@H]1[C@]32OO4` [ARTEMISININ], the “Bacterial Biotransformation” value in data set [18], in [19], in data set [1], in [4], in [5] and in data set [6] was “Compound metabolized” each time. Besides, the “Bacterial Biotransformation” value in [7], in data set [8], in data set [9], in data set [10], in data set [11] and in data set [12] was “Compound metabolized” in each case. In addition, the “Bacterial Biotransformation” value in data set [13] is “Compound metabolized”; in [14], “Compound metabolized”; in data set [15], “Compound NOT metabolized”; in [16], “Compound metabolized”; in [17] it was “Compound metabolized”.

In the case of `C#C[C@]1(O)CC[C@H]2[C@@H]3CCC4=Cc5oncc5C[C@]4(C)[C@H]3CC[C@@]21C` [DANAZOL], the “Bacterial Biotransformation” value in [18] is on record as “Compound metabolized”; in data set [19] it was “Compound metabolized”; in [1] it was “Compound NOT metabolized”; in data set [5] it was “Compound metabolized”; in data set [6], “Compound metabolized”; in data set [7], “Compound metabolized”. Further, the “Bacterial Biotransformation” value in [8], in [9], in data set [10], in data set [12], in [13] and in data set [14] was “Compound metabolized” in each case. Further, the “Bacterial Biotransformation” value in data set [15] is “Compound metabolized”.

For the molecule `Cc1nc2n(c(=O)c1CCN1CCC(c3noc4cc(F)ccc34)CC1)CCCC2O` (centres undefined) [PALIPERIDONE], the “Bacterial Biotransformation” value is recorded as “Compound NOT metabolized” in data set [18]; “Compound metabolized” in [19]; “Compound NOT metabolized” in data set [1]; “Compound NOT metabolized” in [20]; “Compound NOT metabolized” in data set [3]; “Compound metabolized” in data set [4]. The “Bacterial Biotransformation” value in [5], in data set [6], in data set [7], in data set [8], in data set [9] and in data set [10] was “Compound metabolized” in each case. Moreover, the “Bacterial Biotransformation” value in data set [11], in [12], in data set [13], in [14], in data set [15] and in [16] was “Compound metabolized” throughout. The “Bacterial Biotransformation” value in data set [17] is recorded as “Compound metabolized”.

As for `Nc1ccc(/N=N/c2ccccc2)c(N)n1` [PHENAZOPYRIDINE], the “Bacterial Biotransformation” value in [18], in data set [19], in [2], in data set [20], in data set [3] and in data set [4] was “Compound metabolized” in each case. For the same molecule, the “Bacterial Biotransformation” value in [5], in [6], in data set [7], in data set [8], in data set [9] and in data set [10] was “Compound metabolized” throughout. In addition, the “Bacterial Biotransformation” value in data set [11], in [12], in data set [13], in data set [14], in [15] and in data set [16] was “Compound metabolized” throughout. In addition, the “Bacterial Biotransformation” value in [17] is recorded as “Compound metabolized”.

As to `Cc1ccc(/C(=C\CN2CCCC2)c2ccccn2)cc1` [TRIPROLIDINE], the “Bacterial Biotransformation” value in data set [18], in data set [19], in data set [2], in data set [20], in data set [3] and in data set [4] was “Compound NOT metabolized” in each case. The “Bacterial Biotransformation” value in [5], in data set [6], in [7], in data set [8], in [9] and in data set [10] was “Compound NOT metabolized” in each case. For the same molecule, the “Bacterial Biotransformation” value in data set [11], in [12], in data set [13], in data set [14], in data set [15] and in [16] was “Compound NOT metabolized” throughout. For the same molecule, in [17], the “Bacterial Biotransformation” value was “Compound NOT metabolized”.
